Like-named read-outs stand apart in the source and are kept apart here.
Assays:
N2a cells [1] = experiment: Protection against thapsigargin (TG)-induced cell death, N2a; assay type: cell-based, mouse; conditions: compound 20 μM; thapsigargin 1 μM; 24 hrs
Procedure: (§1) Protection against Thapsigargin (TG)-induced Cell-death. Human embryonic kidney (HEK293) cells were grown in Dulbecco's Modified Eagle's Medium (DMEM) with 10% FBS and 1% antibiotic antimycotic solution (ABAM). Mouse neuroblastoma (N2a) cells were grown in 1:1 DMEM:OPTI-MEM® with 5% FBS and 1% ABAM. All cells were grown in 10% CO2 in a humidified environment of the incubator. Cells grown in 96-well plates were exposed to a test compound (20 μM) for 2 hrs before addition of thapsigargin (15 μM for HEK293 cells and 1 μM for N2a cells) to induce ER stress. After incubation in cell-culture incubator for 24 hrs, ALAMARBLUE® regent (10% v/v) was added to the wells. Fluorescence reading was taken 2 hrs after the addition of the ALAMARBLUE® regent. Cell-viability was calculated as a percentage of relative fluorescence unit (RFU) compared to control.
(§2) The results are summarized in Table 2, where A represents a value greater than 50% cell rescue, B represents a value between 10% to 50% cell rescue, C represents a value between 1% to 10% cell rescue, and D represents a value no greater than 1% cell rescue.

N2a cells [2] = experiment: Protection against hydrogen peroxide-induced cell death, N2a; assay type: cell-based, mouse; conditions: compound 40 μM; hydrogen peroxide 200 μM
Procedure: Protection against Hydrogen Peroxide-induced Cell-death. N2a cells grown in 96-well plates were exposed to a test compound (40 μM) for 2 hrs before addition of hydrogen peroxide (200 μM). After 40 min of incubation with hydrogen peroxide, ALAMARBLUE® regent (10% v/v) was added to the wells. Fluorescence reading was taken 2 hrs after the addition of the ALAMARBLUE® regent. Cell-viability was calculated as a percentage of relative fluorescence unit (RFU) compared to control.
as §2

HEK293 cells = experiment: Protection against thapsigargin (TG)-induced cell death, HEK293; assay type: cell-based, human; conditions: compound 20 μM; thapsigargin 15 μM; 24 hrs
Procedure: as §1, §2

SERCA (SR vesicles) = experiment: Activation of SERCA, increase in Vmax; assay type: biochemical
CSM14.1 cells = experiment: ER stress cell survival assay (thapsigargin); assay type: cell-based; conditions: for Cell Survival: compound 2 μM, about 15 μM thapsigargin, CSM14.1 cells;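 for cell survival: survival read as CellTiter-Glo luminescence after overnight incubation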
Procedure: ER Stress Cell Survival Assay
CSM14.1 cells were maintained in Complete Medium at 32° C.; wherein the Complete Medium contained Dulbecco's modified eagle medium (DMEM) with 10% fetal bovine serum (FSB), 1% L-glutamine, 100 IU/mL penicillin, and 100 μg/mL streptomycin. The cells were recovered from cultures by trypsinization and then seeded in 384 well plates (Greiner #781098) at a concentration of 1,000 cells/well in 20 μL of DMEM Assay Medium, wherein the DMEM Assay Medium contained 2% FBS, 100 IU/mL penicillin, and 100 μg/mL streptomycin. Seeding was performed using a MultiDrop Combi reagent broadcaster. The plates were incubated overnight at 32° C.
A test compound was prepared by 2-fold serial dilution in 100% DMSO using a BIOMEK® 2000 liquid handler (Beckman Coulter). A dose-response curve containing 10 concentrations of the test compound was obtained. Using a BIOMEK® FX liquid handler (Beckman Coulter), 2.5 μL of the test compound was transferred from the 100% DMSO serial dilution plate to an intermediate plate containing 47.5 μL of DMEM Assay Medium containing 2% FBS, 100 IU/mL penicillin, and 100 μg/mL streptomycin and mixed. To reduce or eliminate the interference from the compound's precipitation, 6 μL of the diluted compound was immediately transferred to the assay plate to achieve a high compound concentration of 100 μM in 99% DMEM Assay Medium and 1% DMSO. After the assay plates were incubated for 2 hrs, 4 μL of 112.5 μM thapsigargin (TG) (DMSO stock diluted into Assay TC Medium) was dispensed into each testing well with a MultiDrop Combi reagent broadcaster for a final concentration of about 15 μM TG. The tissue culture media (4 μL) containing vehicle only was transferred manually to each control cell using a 16 channel electronic pipette. […] High luminescence indicates cell survival.
Alternatively, a test compound was tested at a single compound concentration (e.g., 2 μM) to determine the effect of the compound on cell survival in comparison with vehicle.

human islet microtissues = experiment: Protection of human pancreatic islets under cytokine stress; assay type: cell-based; conditions: 168 h, compound 5 μM, cytokine cocktail IL1-β, IFN-γ, TNF-α, 7 days, read-out: increase in viability over baseline (total ATP content)
Procedure: Human pancreatic islet microtissues treated with cytokines were used to model the conditions of Type 1 Diabetes in vitro. This study tested the effects of compounds on […] viability in human islets under cytokine stress. The model consisted of human islet microtissues from an HLA-A2 positive donor grown and separated in a 96-well plate (1 microtissue per well). The microtissues were treated for 7 days with a cocktail of cytokines (IL1-β 5 ng/mL, IFN-γ 25 ng/mL, TNF-α 25 ng/mL) and compound (5 μM) or vehicle. There were 6 microtissues treated per compound or vehicle. At day 7, the total ATP content was measured using CellTiter-Glo (Promega).

[3] = Pharmacokinetics in Sprague Dawley rats; assay type: in vivo, rat; conditions: rat; for AUC(0-t): read-out: AUC0-t; for MRT inf: read-out: MRT0-∞; for F: PO 10 mg/kg vs IV 2 mg/kg
Procedure: Blood was drawn at 5 min, 15 min, 30 min, 1 hr, 2 hrs, 4 hrs, 6 hrs, and 8 hrs into EDTA containing tubes and plasma was harvested by centrifugation. Plasma (25 μL) was treated with acetonitrile (125 μL) containing an internal standard. The sample was then centrifuged for 5 min at 4,000 rpm in a tabletop centrifuge and the filtrate was collected. The filtrate was injected onto a Thermo Betasil C18 HPLC column 5 (50×2.1 mm). Mobile Phase A was water with 0.1% formic acid. Mobile Phase B was acetonitrile with 0.1% formic acid. […] An API Sciex 4000 equipped with a turbo ion spray source was used for all analytical measurements. A positive ion MRM method was developed. Peak areas of the product ion were measured against the peak areas of the internal standard. Data was fit using WinNonLin (Pharsight Corporation, Mountain View, CA).

[4] = Sprague Dawley, in vivo, IV 2 mg/kg
[5] = Sprague Dawley, in vivo, PO 10 mg/kg

COc1ccc(C(=O)Nc2cccc3ccc(C)nc23)cc1 [Compound A8, 4-Methoxy-N-(2-methylquinolin-8-yl)benzamide]
N2a Cells (TG-induced) cell rescue (N2a cells [1]): B (B represents a value between 10% to 50% cell rescue)
N2a Cells (H2O2-induced) cell rescue (N2a cells [2]): B (B represents a value between 10% to 50% cell rescue)
HEK293 Cells (TG-induced) cell rescue (HEK293 cells): A (A represents a value greater than 50% cell rescue)
Increase in Vmax at 10 μM (SERCA (SR vesicles)): C′ (C′ represents an increase no greater than 20%)

Cc1ccc(C(=O)Nc2cccc3ccc(C)nc23)c(Cl)c1 [Compound A17, 2-Chloro-4-methyl-N-(2-methylquinolin-8-yl)benzamide]
EC50 (CSM14.1 cells; dose-response): 20 to 100 µM
viability at 5 µM (human islet microtissues): 10 to 20%
Increase in Vmax at 10 μM (SERCA (SR vesicles)): A′ (A′ represents an increase greater than 50%)
AUC(0-inf) [3, 4]: 381 ± 66 ng·h/mL
Cmax [3, 4]: 4420 ± 640 nM
Tmax [3, 4]: 1.2 min
half-life [3, 4]: 54 min
AUC(0-t) [3, 4]: 380 ± 66 ng·h/mL
MRT inf [3, 4]: 35.4 min
Vd ([3]; Sprague Dawley, in vivo, IV 2 mg/kg, read-out: Vz): 7.01 L/kg
AUC(0-inf) [3, 5]: 587 ± 120 ng·h/mL
Cmax [3, 5]: 1690 ± 740 nM
Tmax [3, 5]: 15 min
AUC(0-t) [3, 5]: 583 ± 119 ng·h/mL
MRT inf [3, 5]: 67.8 min
F [3]: 31%

COc1c(C)cccc1C(=O)Nc1cccc2ccc(C)nc12 [Compound A19, 2-Methoxy-3-methyl-N-(2-methylquinolin-8-yl)benzamide]
viability at 5 µM (human islet microtissues): 20 to 50%
Increase in Vmax at 10 μM (SERCA (SR vesicles)): A′ (A′ represents an increase greater than 50%)
AUC(0-inf) [3, 4]: 309 ± 17 ng·h/mL
Cmax [3, 4]: 3850 ± 460 nM
Tmax [3, 4]: 1.2 min
clearance [3, 4]: 0.167 mL/min/kg
half-life [3, 4]: 27 min
AUC(0-t) [3, 4]: 299 ± 17 ng·h/mL
MRT inf [3, 4]: 27.6 min
AUC(0-inf) [3, 5]: 385 ± 99 ng·h/mL
Cmax [3, 5]: 1250 ± 400 nM
Tmax [3, 5]: 19.8 min
half-life [3, 5]: 26.4 min
AUC(0-t) [3, 5]: 375 ± 105 ng·h/mL
MRT inf [3, 5]: 45 min
F [3]: 25%

N#Cc1cccc(C(=O)Nc2cccc3cccnc23)c1 [Compound B3, 3-Cyano-N-(quinolin-8-yl)benzamide]
N2a Cells (TG-induced) cell rescue (N2a cells [1]): B (B represents a value between 10% to 50% cell rescue)
N2a Cells (H2O2-induced) cell rescue (N2a cells [2]): B (B represents a value between 10% to 50% cell rescue)
HEK293 Cells (TG-induced) cell rescue (HEK293 cells): A (A represents a value greater than 50% cell rescue)
Increase in Vmax at 10 μM (SERCA (SR vesicles)): C′ (C′ represents an increase no greater than 20%)

Cc1ccc2cccc(NC(=O)c3ccc(C#N)cc3)c2n1 [Compound B4, 4-Cyano-N-(2-methylquinolin-8-yl)benzamide]
N2a Cells (TG-induced) cell rescue (N2a cells [1]): B (B represents a value between 10% to 50% cell rescue)
N2a Cells (H2O2-induced) cell rescue (N2a cells [2]): B (B represents a value between 10% to 50% cell rescue)
HEK293 Cells (TG-induced) cell rescue (HEK293 cells): A (A represents a value greater than 50% cell rescue)

Cc1ccc2cccc(NC(=O)c3ccccc3C(F)(F)F)c2n1 [Compound C5, 2-Trifluoromethyl-N-(2-methylquinolin-8-yl)benzamide]
N2a Cells (TG-induced) cell rescue (N2a cells [1]): A (A represents a value greater than 50% cell rescue)
N2a Cells (H2O2-induced) cell rescue (N2a cells [2]): B (B represents a value between 10% to 50% cell rescue)
Cell Survival (CSM14.1 cells): B (B represents a value between 10% and 50%)
HEK293 Cells (TG-induced) cell rescue (HEK293 cells): A (A represents a value greater than 50% cell rescue)
Increase in Vmax at 10 μM (SERCA (SR vesicles)): B′ (B′ represents an increase between 20 to 50%)

Cc1ccc2cccc(NC(=O)c3ccc(C(F)(F)F)cc3)c2n1 [Compound C10, 4-Trifluoromethyl-N-(2-methylquinolin-8-yl)benzamide]
N2a Cells (TG-induced) cell rescue (N2a cells [1]): B (B represents a value between 10% to 50% cell rescue)
N2a Cells (H2O2-induced) cell rescue (N2a cells [2]): B (B represents a value between 10% to 50% cell rescue)
Cell Survival (CSM14.1 cells): D (D represents a value no greater than 1%)
HEK293 Cells (TG-induced) cell rescue (HEK293 cells): A (A represents a value greater than 50% cell rescue)

Source: patent US11890279B2, “Quinolines that modulate SERCA and their use for treating disease” (Neurodon Corporation, priority 2020, dated 2024)
